Counter-ions that a name gives are not always drawn.
Experiments:
[1] = test system: CCl4 -induced hepatopath rats; test: Hepatopathy improving effects for CCl4-induced hepatopath rats (inhibition to the increase of transaminase in serum); format: in vivo; conditions: SD male rats, 100 mg/kg oral, 30 min before CCl4 (diluted fourfold with olive oil, peritoneally, 4 mg/kg), blood after 24 hours; for Serum GPT: Control 1 (no CCl4) 20, Control 2 (CCl4 alone) 1071; for Serum GOT: Control 1 (no CCl4) 89, Control 2 (CCl4 alone) 7719
Protocol: The hepatopathy improving effects of the compounds (I') of this invention for CCl4 -induced hepatopath rats were investigated by using, as an index, the inhibition to the increase of transaminase in serum. After SD male rats (7 weeks old; Japanese Charles River) had been fasted for 24 hours, test drugs were orally administered at 100 mg/kg. Thirty minutes later, a CCl4 solution (diluted fourfold with olive oil) was peritoneally administered at 4 mg/kg. The rats were fasted further for 24 hours and then anesthetized with 1 ml/kg of sodium pentobarbital. After a blood sample was collected from the descending abdominal aorta of each rat, the liver was enucleated and its wet weight was measured. Further, the GOT and GPT of a serum, which had been obtained from the blood sample so collected, were measured by an automatic chemical analyzer ("TBA-380", trade name; manufactured by Toshiba Corp.). Thick serums were measured after dilution in distilled water.
Note: Control 1 is a group not administered with CCl4 while Control
is a group administered with CCl4 alone.

[2] = test system: hepatopath; conditions: previously found by the present assignee; cited from earlier work

c1csc(=Nc2ccc3c(c2)OCO3)s1 [Example 1, N,N-(1,3-dithiol-2-ylidene)-1,3-benzodioxol-5-amine]
Serum GPT [1]: 74 U/1
Serum GOT [1]: 432 U/1

CC(C)OC(=O)C(C(=O)c1ccc2c(c1)OCO2)=C1SC=CS1 [Example 2, isopropyl 2-(1,3-dithiol-2-ylidene)-3-[3,4-(methylenedioxy)phenyl]-3-oxopropionate]
Serum GPT [1]: 100 U/1
Serum GOT [1]: 563 U/1

CC(C)OC(=O)C(=C1SC=CS1)c1ccc2c(c1)OCO2 [Example 3, isopropyl 2-(1,3-dithiol-2-ylidene)-2-[3,4-(methylenedioxy)phenyl]acetate]
Serum GPT [1]: 557 U/1
Serum GOT [1]: 2573 U/1

CSCC(N)C(=O)Nc1ccc2c(c1)OCO2 (stereo not shown) [Example 5, [(3,4-methylenedioxy)aniline]-S-methylcysteinamide hydrochloride]
Serum GPT [1]: 57 U/1
Serum GOT [1]: 391 U/1

CSC(=S)Nc1ccc2c(c1)OCO2 [Synthesis Example 1, methyl N-(3,4-methylenedioxyphenyl)dithiocarbamate]
Serum GPT [1]: 230 U/1
Serum GOT [1]: 1027 U/1

COC(=O)CNc1ccc2c(c1)OCO2 [Synthesis Example 2, methyl 2-[N-(3,4-methylenedioxyphenyl)amino]acetate]
Serum GPT [1]: 310 U/1
Serum GOT [1]: 1400 U/1

COc1cc2c(c(OC)c1OC)-c1c(cc3c(c1OC)OCO3)CC(C)C(C)(O)C2 (stereo not shown) [gomisin A]
improvement of GPT and GOT value of a hepatopath [2]: can promptly improve the GPT and GOT value of a hepatopath

Source: US5227398A, “Benzodioxole derivatives and hepatopathy improvers comprising the same” (Tsumura & Co., priority 1990, dated 1993)
